“And” between values parts separate entries of the source, which are not always exact repeats. Equal entries are not always repeated. One block for each compound: values may come before it.
Test system: NCI-H196 complex spheroid viability
Test: Anticancer human tumor NCI-H196 cell line growth inhibition [LSD1];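 also: spheroids exposed to agents for 7 days before readout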;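 as to viability, T/C: 100% = DMSO vehicle control viability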
Conditions: for viability, T/C: stronger effect = lower value
In short: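 Complex spheroids of tumor cells with HUVEC and human MSCs, exposed to iadademstat combined with other agents. Each agent tested in half-log steps from near clinical Cmax (else 10 microM top), DMSO ≤0.25%.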

[1] = curve of first compound, second compound 0.1 µM
[2] = curve of first compound, second compound 0.316 µM
[3] = curve of first compound, second compound 1 µM
[4] = curve of first compound, second compound 3.16 µM
[5] = curve of first compound, second compound 10 µM
[6] = second compound 0.1 µM, first compound 0.00316 µM
[7] = second compound 0.1 µM, first compound 0.01 µM
[8] = second compound 0.1 µM, first compound 0.0316 µM
[9] = second compound 0.1 µM, first compound 0.1 µM
[10] = second compound 0.1 µM, first compound 0.316 µM
[11] = second compound 0.1 µM, first compound 1 µM
[12] = second compound 0.316 µM, first compound 0.00316 µM
[13] = second compound 0.316 µM, first compound 0.01 µM
[14] = second compound 0.316 µM, first compound 0.0316 µM
[15] = second compound 0.316 µM, first compound 0.1 µM
[16] = second compound 0.316 µM, first compound 0.316 µM
[17] = second compound 0.316 µM, first compound 1 µM
[18] = second compound 1 µM, first compound 0.00316 µM
[19] = second compound 1 µM, first compound 0.01 µM
[20] = second compound 1 µM, first compound 0.0316 µM
[21] = second compound 1 µM, first compound 0.1 µM
[22] = second compound 1 µM, first compound 0.316 µM
[23] = second compound 1 µM, first compound 1 µM
[24] = second compound 3.16 µM, first compound 0.00316 µM
[25] = second compound 3.16 µM, first compound 0.01 µM
[26] = second compound 3.16 µM, first compound 0.0316 µM
[27] = second compound 3.16 µM, first compound 0.1 µM
[28] = second compound 3.16 µM, first compound 0.316 µM
[29] = second compound 3.16 µM, first compound 1 µM
[30] = second compound 10 µM, first compound 0.00316 µM
[31] = second compound 10 µM, first compound 0.01 µM
[32] = second compound 10 µM, first compound 0.0316 µM
[33] = second compound 10 µM, first compound 0.1 µM
[34] = second compound 10 µM, first compound 0.316 µM
[35] = second compound 10 µM, first compound 1 µM
[36] = second compound 0.1 µM, first compound 3.16 µM
[37] = second compound 0.1 µM, first compound 10 µM
[38] = second compound 0.316 µM, first compound 3.16 µM
[39] = second compound 0.316 µM, first compound 10 µM
[40] = second compound 1 µM, first compound 3.16 µM
[41] = second compound 1 µM, first compound 10 µM
[42] = second compound 3.16 µM, first compound 3.16 µM
[43] = second compound 3.16 µM, first compound 10 µM
[44] = second compound 10 µM, first compound 3.16 µM
[45] = second compound 10 µM, first compound 10 µM

Compound: CC1COCCN1c1cc(-c2ccnn2C)c2ccnc(-c3ccn[nH]3)c2n1 (centres undefined) + NC1CC1c1ccc(-c2cccc(O)c2)cc1
IC50 [1]: 368 nM
IC50 [2]: 176 nM
IC50 [3]: 96.1 nM
IC50 [4]: 212 nM
IC50 [5]: 168 nM
viability, T/C [6]: 79.2%
viability, T/C [7]: 74.4%
viability, T/C [8]: 72.5%
viability, T/C [9]: 57.1%
viability, T/C [10]: 49.8%
viability, T/C [11]: 43.2%
viability, T/C [12]: 72.4%
viability, T/C [13]: 78.7%
viability, T/C [14]: 71.4%
viability, T/C [15]: 55.4%
viability, T/C [16]: 45.4%
viability, T/C [17]: 38.4%
viability, T/C [18]: 85.6%
viability, T/C [19]: 87.6%
viability, T/C [20]: 65.5%
viability, T/C [21]: 51%
viability, T/C [22]: 51.4%
viability, T/C [23]: 45.9%
viability, T/C [24]: 86.6%
viability, T/C [25]: 83.5%
viability, T/C [26]: 70.9%
viability, T/C [27]: 56.1%
viability, T/C [28]: 47.7%
viability, T/C [29]: 41.5%
viability, T/C [30]: 89.4%
viability, T/C [31]: 81.2%
viability, T/C [32]: 79.3%
viability, T/C [33]: 55.2%
viability, T/C [34]: 43.5%
viability, T/C [35]: 40.9%

IC50 (curve of compound): 5620 nM and 6290 nM
Compound: CC1(C)CCC(CN2CCN(c3ccc(C(=O)NS(=O)(=O)c4ccc(NCC5CCOCC5)c([N+](=O)[O-])c4)c(Oc4cnc5[nH]ccc5c4)c3)CC2)=C(c2ccc(Cl)cc2)C1
viability, T/C (compound 0.0316 µM): 99.4% and 101%
viability, T/C (compound 0.1 µM): 104% and 99.2%
viability, T/C (compound 0.316 µM): 94.9% and 98.7%
viability, T/C (compound 1 µM): 103% and 93.7%
viability, T/C (compound 3.16 µM): 86.4% and 94.3%
viability, T/C (compound 10 µM): 13% and 20.1%

Compound: CCc1c2c(nc3ccc(O)cc13)-c1cc3c(c(=O)n1C2)COC(=O)[C@]3(O)CC + NC1CC1c1ccc(-c2cccc(O)c2)cc1
IC50 [1]: 8.32 nM
IC50 [2]: 9.63 nM
IC50 [3]: 9.19 nM
IC50 [4]: 6.69 nM
IC50 [5]: 5.92 nM
viability, T/C (second compound 0.1 µM, first compound 0.000949 µM): 119%
viability, T/C (second compound 0.1 µM, first compound 0.003 µM): 111%
viability, T/C (second compound 0.1 µM, first compound 0.00949 µM): 42%
viability, T/C (second compound 0.1 µM, first compound 0.03 µM): 4.2%
viability, T/C (second compound 0.1 µM, first compound 0.0949 µM): 1.09%
viability, T/C (second compound 0.1 µM, first compound 0.3 µM): 0.82%
viability, T/C (second compound 0.316 µM, first compound 0.000949 µM): 107%
viability, T/C (second compound 0.316 µM, first compound 0.003 µM): 93.1%
viability, T/C (second compound 0.316 µM, first compound 0.00949 µM): 52.4%
viability, T/C (second compound 0.316 µM, first compound 0.03 µM): 4.27%
viability, T/C (second compound 0.316 µM, first compound 0.0949 µM): 1.53%
viability, T/C (second compound 0.316 µM, first compound 0.3 µM): 1.11%
viability, T/C (second compound 1 µM, first compound 0.000949 µM): 112%
viability, T/C (second compound 1 µM, first compound 0.003 µM): 94.9%
viability, T/C (second compound 1 µM, first compound 0.00949 µM): 51.1%
viability, T/C (second compound 1 µM, first compound 0.03 µM): 3.65%
viability, T/C (second compound 1 µM, first compound 0.0949 µM): 1.2%
viability, T/C (second compound 1 µM, first compound 0.3 µM): 0.86%
viability, T/C (second compound 3.16 µM, first compound 0.000949 µM): 102%
viability, T/C (second compound 3.16 µM, first compound 0.003 µM): 81.2%
viability, T/C (second compound 3.16 µM, first compound 0.00949 µM): 37.8%
viability, T/C (second compound 3.16 µM, first compound 0.03 µM): 2.23%
viability, T/C (second compound 3.16 µM, first compound 0.0949 µM): 1.01%
viability, T/C (second compound 3.16 µM, first compound 0.3 µM): 0.7%
viability, T/C (second compound 10 µM, first compound 0.000949 µM): 90.9%
viability, T/C (second compound 10 µM, first compound 0.003 µM): 82.7%
viability, T/C (second compound 10 µM, first compound 0.00949 µM): 27.4%
viability, T/C (second compound 10 µM, first compound 0.03 µM): 1.9%
viability, T/C (second compound 10 µM, first compound 0.0949 µM): 0.86%
viability, T/C (second compound 10 µM, first compound 0.3 µM): 0.72%

Compound: O=C(c1cc(Cc2n[nH]c(=O)c3ccccc23)ccc1F)N1CCN(C(=O)C2CC2)CC1 + NC1CCC(NC2CC2c2ccccc2)CC1
IC50 [1]: > 10000 nM
IC50 [2]: > 10000 nM
IC50 [3]: > 10000 nM
IC50 [4]: > 10000 nM
IC50 [5]: > 10000 nM
viability, T/C [8]: 91.8%
viability, T/C [9]: 97.9%
viability, T/C [10]: 91.7%
viability, T/C [11]: 86.5%
viability, T/C [36]: 93.5%
viability, T/C [37]: 88.3%
viability, T/C [14]: 89.8%
viability, T/C [15]: 103%
viability, T/C [16]: 97.8%
viability, T/C [17]: 94.8%
viability, T/C [38]: 83.4%
viability, T/C [39]: 83%
viability, T/C [20]: 89.9%
viability, T/C [21]: 91.4%
viability, T/C [22]: 95.6%
viability, T/C [23]: 83.5%
viability, T/C [40]: 89%
viability, T/C [41]: 80.1%
viability, T/C [26]: 91%
viability, T/C [27]: 87%
viability, T/C [28]: 88%
viability, T/C [29]: 87.4%
viability, T/C [42]: 85.7%
viability, T/C [43]: 87.5%
viability, T/C [32]: 89.9%
viability, T/C [33]: 90.2%
viability, T/C [34]: 88.1%
viability, T/C [35]: 89.5%
viability, T/C [44]: 85.7%
viability, T/C [45]: 86.8%

Compound: Nc1ncn(C2CC(O)C(CO)O2)c(=O)n1 (centres undefined) + NC1CC1c1ccc(-c2cccc(O)c2)cc1
IC50 [1]: > 1000 nM
IC50 [2]: > 1000 nM
IC50 [3]: > 1000 nM
IC50 [4]: > 1000 nM
IC50 [5]: > 1000 nM
viability, T/C [6]: 98.6%
viability, T/C [7]: 99.9%
viability, T/C [8]: 99.7%
viability, T/C [9]: 87.9%
viability, T/C [10]: 99.5%
viability, T/C [11]: 97.9%
viability, T/C [12]: 97.5%
viability, T/C [13]: 95.6%
viability, T/C [14]: 98.9%
viability, T/C [15]: 89%
viability, T/C [16]: 94.2%
viability, T/C [17]: 97%
viability, T/C [18]: 98.4%
viability, T/C [19]: 100%
viability, T/C [20]: 98.7%
viability, T/C [21]: 91.2%
viability, T/C [22]: 96.4%
viability, T/C [23]: 97.7%
viability, T/C [24]: 96.4%
viability, T/C [25]: 95%
viability, T/C [26]: 98.1%
viability, T/C [27]: 88.9%
viability, T/C [28]: 106%
viability, T/C [29]: 95.9%
viability, T/C [30]: 105%
viability, T/C [31]: 106%
viability, T/C [32]: 96.3%
viability, T/C [33]: 98.4%
viability, T/C [34]: 95.4%
viability, T/C [35]: 95.2%

IC50 (curve of compound): > 10000 nM
Compound: O=C(c1cc(Cc2n[nH]c(=O)c3ccccc23)ccc1F)N1CCN(C(=O)C2CC2)CC1
viability, T/C (compound 0.0316 µM): 91.2% and 89.6%
viability, T/C (compound 0.1 µM): 93.7% and 93.2%
viability, T/C (compound 0.316 µM): 91.9% and 90%
viability, T/C (compound 1 µM): 94% and 84.9%
viability, T/C (compound 3.16 µM): 89.9% and 91.9%
viability, T/C (compound 10 µM): 95.3% and 95.9%

Compound: CC1(C)CCC(CN2CCN(c3ccc(C(=O)NS(=O)(=O)c4ccc(NCC5CCOCC5)c([N+](=O)[O-])c4)c(Oc4cnc5[nH]ccc5c4)c3)CC2)=C(c2ccc(Cl)cc2)C1 + NC1CC1c1ccc(-c2cccc(O)c2)cc1
IC50 [1]: 5680 nM
IC50 [2]: 5200 nM
IC50 [3]: 5540 nM
IC50 [4]: 5490 nM
IC50 [5]: 4930 nM
viability, T/C [8]: 91.2%
viability, T/C [9]: 99.9%
viability, T/C [10]: 99%
viability, T/C [11]: 84.2%
viability, T/C [36]: 85.7%
viability, T/C [37]: 16.9%
viability, T/C [14]: 98.6%
viability, T/C [15]: 101%
viability, T/C [16]: 87.1%
viability, T/C [17]: 84%
viability, T/C [38]: 79.2%
viability, T/C [39]: 16.1%
viability, T/C [20]: 94.3%
viability, T/C [21]: 97.4%
viability, T/C [22]: 95.6%
viability, T/C [23]: 95.7%
viability, T/C [40]: 79.2%
viability, T/C [41]: 19%
viability, T/C [26]: 96.5%
viability, T/C [27]: 105%
viability, T/C [28]: 101%
viability, T/C [29]: 84.8%
viability, T/C [42]: 80.6%
viability, T/C [43]: 20%
viability, T/C [32]: 94.9%
viability, T/C [33]: 95.6%
viability, T/C [34]: 97.3%
viability, T/C [35]: 92.1%
viability, T/C [44]: 72.5%
viability, T/C [45]: 14.2%

Reference: PubChem BioAssay AID1918958 (Molecular Pharmacology Branch, DTP, NCI, 2023)
